From patent US8151795B2, “Method of demand valve oxygen therapy for rapid abort of cluster headache” (Linde AG, priority 2008, dated 2012)
Several values for one entry are separate records, joined by “and”; a condition that tells them apart may be missing. Identical values can stand only once. Like-named read-outs stand apart in the source and are kept apart here.

Experiments:
[1] = tested on: cluster headache patients; conditions: nasal spray at doses of 5 and 10 mg; cited from earlier work
cerebral blood flow [2] = conditions: 5% carbon dioxide; young men; cited from earlier work
[3] = tested on: pulmonary ventilation rate; conditions: increase of about 0.25% alveolar carbon dioxide; cited from earlier work
[4] = tested on: patients with episodic and chronic cluster headache; conditions: episodic and chronic disease; cited from earlier work
[5] = tested on: cluster headache sufferers
Source text: It is critical that the cluster headache sufferer fully inhale and exhale as completely as possible during the first three phases of the method of the present invention, in order to insure more complete ventilation of the lungs during hyperventilation and the expelling of carbon dioxide, a vasodilative agent, as rapidly as possible. The four phases of the invented demand valve method are herein described in more detail.
Taking three to four very deep breaths of oxygen from the demand valve, exhaling and inhaling as completely as possible with each breath, starts the process of clearing the residual Nitrogen from the lungs and also starts the shift into hyperoxia, which can be defined as having more oxygen in the blood than normal.
In Phase 3, slow hyperventilation, which has a recommended respiration rate of 30 breaths per minute, the purpose is to maintain the benefits of hyperventilation, respiratory alkalosis, hypocapnia, and hyperoxia, but at a more comfortable respiration rate. […] The cluster headache sufferer should maintain this respiration rate until the cluster headache pain has clearly subsided.

[6] = tested on: cluster headache patients; conditions: cited from earlier work; for headache response: Rozen 2004; for subjects in whom oxygen is effective: standard of care continuous flow
[7] = tested on: cluster headache patients; conditions: cited from earlier work
cerebral blood flow [8] = conditions: cited from earlier work
Extracerebral Flow Index = conditions: cluster headache patients during headache interval, during 100% oxygen inhalation; cited from earlier work
normal human subjects = conditions: cited from earlier work
[9] = tested on: cluster headache patients; conditions: cited from earlier work; remark: listed apart in the source
[10] = after 10 minutes of oxygen inhalation

Question: Which “acute treatment of cluster headache” value [1] does the source give for `CN(C)CCc1c[nH]c2ccc(C[C@H]3COC(=O)N3)cc12` [Zolmitriptan] here?
Answer: effective and tolerable

Question: Which “increase in CBF” value (cerebral blood flow [2]) does the source give for `O=C=O` [carbon dioxide] here?
Answer: 59%

Question: And the “increase in pulmonary ventilation rate” value [3]?
Answer: 100%

Question: Which prophylactic effect [4] does the source give for `O=O` [hyperbaric oxygen] here?
Answer: no significant prophylactic effect

Question: Which results are given for `O=O` [oxygen]?
Answer: re-attacks (attack 15 to 45 minutes after successful abort), incidence per aborts ([5]; Kip pain level high (7-8) and abort times less than 15 min): 1 out of 4; success rate of aborting cluster headache ([5]; demand valve method, chronic sufferers over 50, attacks of Kip 8 pain level or below): 95% and > 95%; reduction of time for complete abort vs non-rebreathing mask with 15 l/min continuous flow oxygen ([5]; demand valve method, same pain level): ~50%; time to abort ([5]; demand valve method, the one Kip 9 cluster headache recorded): 25 min; adverse effects or symptoms ([5]; many months of continuous use, other than dry mouth): no adverse effects or symptoms encountered; re-attacks after extending oxygen use after abort ([5]; total of 20 minutes of continuous oxygen inhalation): largely or totally eliminated; time to being effective ([6]; 7 to 12 l/min continuous flow, non-rebreathing mask): ≤ 5 min; adverse effects of oxygen for cluster headache ([6]; Ekbom 2002, Matharu 2003): no established adverse effects; patients obtaining significant relief from cluster pain ([6]; Kudrow 1981, cessation of pain within 15 minutes for at least 7 of 10 attacks): 75%; least benefit ([6]; Kudrow 1981, chronic patients over 49 years of age): 57%; greatest benefit ([6]; Kudrow 1981, episodic patients under 50 years of age): 92.9%; headache response ([6]; 7-10 l/min flow rate): no change in headache intensity; headache response ([6]; higher flow rate (15 l/min)): complete or near-complete headache alleviation; patients having success ([6]; chronic patients, standard of care oxygen therapy): 68.4%; patients responding favorably ([6]; episodic patients, standard of care oxygen therapy): 78%; subjects in whom oxygen is effective ([6]; non-rebreathing mask): ~70%; subjects in whom oxygen is effective ([6]; non-rebreathing mask, listed as 100% oxygen): 70%; patients noting oxygen simply delays the attack rather than aborting it ([6]; standard of care method (Matharu 2003)): up to 25%; average decrease of superficial temporal artery pulse amplitude [7, 10]: 30%; patients with decreased pulse amplitude of superficial temporal artery, symptomatic side [7, 10]: 15 of the 16; headache subsiding almost completely ([7]; after 15 minutes, 16 patients studied): 12 patients; patients reporting at least some relief ([7]; after breathing 100% oxygen for 10 minutes): 15 of 16; decrease in CBF (cerebral blood flow [8]; Floyd 2003, transition from air to 100% O2 at 1.0 ATA, MRI): 33%; CBF values for temporal cortex and basal ganglia (cerebral blood flow [8]; Kawamura 1991, after 100% oxygen for five minutes, five cluster headache patients): significantly decreased below normal values; decrease of cerebral blood flow (cerebral blood flow [8]; Kety, healthy young male volunteers): approximately 13%; reduction of Fg (CBF in gray brain matter) (cerebral blood flow [8]; Sakai 1979, normal volunteers of both sexes): 9.4+/−5.4%; EFI values (Extracerebral Flow Index): 7+/−2%; toxic effects (normal human subjects; Kafer 1971, within 3 hours of exposure): no toxic effects; duration for which exposure is safe (normal human subjects; Sackner 1975, atmospheric pressure): less than 6 hours; earliest occurrence of substernal stress after start of oxygen breathing (normal human subjects; Sackner 1975): 4 h

Question: What does the source list for `CNS(=O)(=O)Cc1ccc2[nH]cc(CCN(C)C)c2c1` [sumatriptan]?
Answer: patients in whom effective (pain free in 20 minutes) ([9]; 6 mg injected subcutaneously, double blind placebo controlled trials): about 75%; lower effectiveness in chronic than in episodic cluster ([9]; sumatriptan injection (Rozen 2002)): 8%
